Starred links: 1 amine or outer side, 2 acyl side, 3 side chain; linkers in the order of their positions; H or OH if unused. Positions of bridges follow the written chain, without caps; N, C: chain ends. Non-standard residues stand in square brackets, D forms with d. Residues, ends and D or L forms follow the SMILES beside them. *: point of attachment. hPhe(3,5-F2-4-CF3) = N[C@@H](CCc1cc(F)c(C(F)(F)F)c(F)c1)C(=O)O; hPhe(3-Cl-4-CF3) = N[C@@H](CCc1ccc(C(F)(F)F)c(Cl)c1)C(=O)O; NMePhe(4-CF3) = CN[C@@H](Cc1ccc(C(F)(F)F)cc1)C(=O)O; X50 = O=C([C@H](Cc1cc(F)cc(Br)c1)N[*:1])[*:2]; NEtPhe(4-Me) = CCN[C@@H](Cc1ccc(C)cc1)C(=O)O; NMePhe(4-Me) = CN[C@@H](Cc1ccc(C)cc1)C(=O)O; NMedβ3hAla = C[C@H](CC(=O)[*:2])N(C)[*:1]; NMeGly(cPent) = CN[C@H](C(=O)O)C1CCCC1; Phe(3-I) = N[C@@H](Cc1cccc(I)c1)C(=O)O; Pro(4,4-F2) = O=C(O)[C@@H]1CC(F)(F)CN1; NMeGly(cBu) = CN[C@H](C(=O)O)C1CCC1; NMeY = CN[C@@H](Cc1ccc(O)cc1)C(=O)O; NMeCha = CN[C@@H](CC1CCCCC1)C(=O)O; NMeChg = CN[C@H](C(=O)O)C1CCCCC1; NMeD = CN[C@@H](CC(=O)O)C(=O)O; NMeL = CN[C@@H](CC(C)C)C(=O)O; NMeAbu = CC[C@H](NC)C(=O)O; Morpholide = C1CN(*)CCO1; NMeA = CN[C@@H](C)C(=O)O; NMeAib = CNC(C)(C)C(=O)O; Nle = CCCC[C@H](N)C(=O)O; Piperidide = C1CCN(*)CC1; Pra = C#CC[C@H](N)C(=O)O; Pyrrolidide = C1CCN(*)C1; dNMeA = CN[C@H](C)C(=O)O; Ac5c = NC1(C(=O)O)CCCC1; Aze = O=C(O)[C@@H]1CCN1; Sar = CNCC(=O)O
The compounds below were run against T1, Kras and SOS1 (biotin-tagged human Kras loaded with GDP, His-tagged human SOS1) (Homo sapiens, UniProt P01116, G12D) (assay: Protein-protein interaction inhibition between Kras and SOS1 (KrasGl2D-SOS PPI) using AlphaScreen). Conditions: AlphaScreen; biotin-tagged human Kras loaded with GDP, His-tagged human SOS1; read-out: KRAS G12D-SOS PPI IC50.
T1 construct: made in house; host or cells: E. coli (stated for Kras only)
Format: binding
Summary of the method: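 AlphaScreen format: Ni donor beads capture His-SOS1, streptavidin acceptor beads capture biotinylated Kras (E. coli-expressed, GDP-loaded post-purification). Excite 680 nm, read 520-620 nm.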

T1 sequence (P01116 1-188 isoform P01116-2 G12D): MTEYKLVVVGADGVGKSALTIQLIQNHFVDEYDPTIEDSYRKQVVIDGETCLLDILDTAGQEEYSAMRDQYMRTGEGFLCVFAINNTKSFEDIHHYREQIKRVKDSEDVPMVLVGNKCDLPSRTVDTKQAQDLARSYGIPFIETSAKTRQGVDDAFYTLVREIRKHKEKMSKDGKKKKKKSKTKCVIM

Compound | IC50 [nM]
C#CC[C@@H]1NC(=O)[C@H](Cc2cccc(I)c2)NC(=O)CN(C)C(=O)[C@H](Cc2ccc(C(F)(F)F)cc2)N(C)C(=O)CN(C)C(=O)CN(C)C(=O)[C@H]([C@@H](C)CC)NC(=O)[C@H](CC(C)C)N(C)C(=O)C[C@@H](C(=O)N2CCCCC2)N(C)C(=O)[C@H](CC(C)C)NC(=O)C(C)(C)N(C)C1=O [Compound 1361] ([NMeL]I[Sar][Sar][NMePhe(4-CF3)][Sar][Phe(3-I)][Pra][NMeAib]L[NMeD]-Piperidide; lactam N-11) | 24
CC[C@H](C)[C@@H]1NC(=O)[C@H](C2CCC2)N(C)C(=O)C[C@@H](C(=O)N2CCCC2)N(C)C(=O)[C@H](C2CCCCC2)N(C)C(=O)C2(CCCC2)NC(=O)[C@@H]2CC(F)(F)CN2C(=O)[C@H](CCc2ccc(C(F)(F)F)c(Cl)c2)NC(=O)CN(C)C(=O)[C@H](CC2CCCCC2)N(C)C(=O)CN(C)C(=O)CN(C)C1=O [Compound 1363] ([NMeGly(cBu)]I[Sar][Sar][NMeCha][Sar][hPhe(3-Cl-4-CF3)][Pro(4,4-F2)][Ac5c][NMeChg][NMeD]-Pyrrolidide; lactam N-11) | 0.57
CC[C@H](C)[C@@H]1NC(=O)[C@H](CC(C)C)N(C)C(=O)C[C@@H](C(=O)N2CCOCC2)N(C)C(=O)[C@H](C2CCCC2)N(C)C(=O)C2(CCCC2)NC(=O)[C@@H]2CCCN2C(=O)[C@H](CCc2cc(F)c(C(F)(F)F)c(F)c2)NC(=O)CN(C)C(=O)[C@H](Cc2ccc(C)cc2)N(CC)C(=O)[C@@H]2CCN2C(=O)[C@H](C)N(C)C1=O [Compound 1368] ([NMeL]I[NMeA][Aze][NEtPhe(4-Me)][Sar][hPhe(3,5-F2-4-CF3)]P[Ac5c][NMeGly(cPent)][NMeD]-Morpholide; lactam N-11) | 0.67
CCCC[C@@H]1NC(=O)[C@H](Cc2cc(F)cc(Br)c2)NC(=O)CN(C)C(=O)[C@H](Cc2ccc(OC)cc2)N(C)C(=O)[C@@H]2CCN2C(=O)[C@H](C)N(C)C(=O)[C@H]([C@@H](C)CC)NC(=O)[C@H](CC)N(C)C(=O)C[C@@H](C(=O)N2CCCCC2)N(C)C(=O)[C@H](CC(C)C)NC(=O)C(C)(C)N(C)C1=O [Compound 1372] ([NMeAbu]I[NMeA][Aze][NMeY](Me)[Sar][X50][Nle][NMeAib]L[NMeD]-Piperidide; lactam N-11) | 17
CC[C@H](C)[C@@H]1NC(=O)[C@H](C)N(C)C(=O)C[C@@H](C)N(C)C(=O)[C@H](CC(C)C)NC(=O)C(C)(C)N(C)C(=O)[C@H](CC(C)C)NC(=O)[C@H](CCc2ccc(C(F)(F)F)c(Cl)c2)NC(=O)CN(C)C(=O)[C@H](Cc2ccc(C)cc2)N(C)C(=O)[C@@H]2CCN2C(=O)CN(C)C1=O [Compound 1377] (cyclo([Aze][NMePhe(4-Me)][Sar][hPhe(3-Cl-4-CF3)]L[NMeAib]L[NMedβ3hAla][NMeA]I[Sar])) | 5.8
CC[C@H](C)[C@@H]1NC(=O)[C@H](C)N(C)C(=O)C[C@@H](C)N(C)C(=O)[C@H](CC(C)C)NC(=O)C(C)(C)N(C)C(=O)[C@H](CC(C)C)NC(=O)[C@H](CCc2ccc(C(F)(F)F)c(Cl)c2)NC(=O)[C@@H](C)N(C)C(=O)[C@H](CC2CCCCC2)N(C)C(=O)[C@@H]2CCN2C(=O)CN(C)C1=O [Compound 1378] (cyclo([Aze][NMeCha][dNMeA][hPhe(3-Cl-4-CF3)]L[NMeAib]L[NMedβ3hAla][NMeA]I[Sar])) | 380
CC[C@H](C)[C@@H]1NC(=O)[C@H](CC(C)C)N(C)C(=O)C[C@@H](C)N(C)C(=O)[C@H](CC(C)C)NC(=O)C(C)(C)N(C)C(=O)[C@H](CC(C)C)NC(=O)[C@H](CCc2ccc(C(F)(F)F)c(Cl)c2)NC(=O)CN(C)C(=O)[C@H](Cc2ccc(C)cc2)N(C)C(=O)[C@@H]2CCN2C(=O)[C@H](C)N(C)C1=O [Compound 1379] (cyclo([Aze][NMePhe(4-Me)][Sar][hPhe(3-Cl-4-CF3)]L[NMeAib]L[NMedβ3hAla][NMeL]I[NMeA])) | 64
CC[C@H](C)[C@@H]1NC(=O)[C@H](C)N(C)C(=O)C[C@@H](C)N(C)C(=O)[C@H](CC(C)C)NC(=O)C(C)(C)N(C)C(=O)[C@H](CC(C)C)NC(=O)[C@H](CCc2ccc(C(F)(F)F)c(Cl)c2)NC(=O)[C@@H](C)N(C)C(=O)[C@H](Cc2ccc(C)cc2)N(C)C(=O)[C@@H]2CCN2C(=O)CN(C)C1=O [Compound 1382] (cyclo([Aze][NMePhe(4-Me)][dNMeA][hPhe(3-Cl-4-CF3)]L[NMeAib]L[NMedβ3hAla][NMeA]I[Sar])) | 230
CC[C@H](C)[C@@H]1NC(=O)[C@H](C)N(C)C(=O)C[C@@H](C)N(C)C(=O)[C@H](CC(C)C)NC(=O)C(C)(C)N(C)C(=O)[C@H](CC(C)C)NC(=O)[C@H](CCc2ccc(C(F)(F)F)c(Cl)c2)NC(=O)[C@@H](C)N(C)C(=O)[C@H](Cc2ccc(C(F)(F)F)cc2)N(C)C(=O)[C@@H]2CCN2C(=O)CN(C)C1=O [Compound 1383] (cyclo([Aze][NMePhe(4-CF3)][dNMeA][hPhe(3-Cl-4-CF3)]L[NMeAib]L[NMedβ3hAla][NMeA]I[Sar])) | 130

From US12371454B2, “Cyclic peptide compound having Kras inhibitory action” (priority 2019, dated 2025)
